Results: patent publication EP0513703A2, “Carbamate esters of eseroline having anticholinesterase activity, a process for their preparation and relative pharmaceutical compositions containing them as the active principle” (priority 1991, dated 1992)
Like-named read-outs stand apart in the source and are kept apart here.

What was measured:
[1] = test system: mice (Swiss strain of both sexes); experiment: Acute toxicity, LD50 by oral administration in mice (class F derivatives); details: mice, oral administration
[2] = target: T1, AChE (acetylcholinesterase) on the mouse brain (Mus musculus, UniProt P21836); experiment: Inhibition of AChE on the mouse brain after single doses (class F derivatives); type: in vivo; details: single doses (0.4-7 mg/kg)
T1 construct: from tissue; host or cells: mouse brain
T1 sequence (P21836 32-614): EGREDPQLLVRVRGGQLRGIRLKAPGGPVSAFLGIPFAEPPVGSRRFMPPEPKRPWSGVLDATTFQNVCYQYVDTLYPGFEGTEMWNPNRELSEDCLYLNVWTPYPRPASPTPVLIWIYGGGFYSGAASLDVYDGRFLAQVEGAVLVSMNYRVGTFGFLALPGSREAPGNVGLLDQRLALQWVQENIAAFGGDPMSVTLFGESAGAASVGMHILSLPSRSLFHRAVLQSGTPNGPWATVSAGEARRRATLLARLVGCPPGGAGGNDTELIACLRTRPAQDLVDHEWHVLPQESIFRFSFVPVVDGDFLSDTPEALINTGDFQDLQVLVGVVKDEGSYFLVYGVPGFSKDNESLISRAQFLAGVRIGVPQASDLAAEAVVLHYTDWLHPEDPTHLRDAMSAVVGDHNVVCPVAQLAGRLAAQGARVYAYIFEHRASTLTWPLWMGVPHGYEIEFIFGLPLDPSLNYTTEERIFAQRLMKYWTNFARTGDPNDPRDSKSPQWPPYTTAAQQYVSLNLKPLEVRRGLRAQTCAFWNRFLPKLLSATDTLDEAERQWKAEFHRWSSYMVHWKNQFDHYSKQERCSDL

motor activity [3] = experiment: Antagonistic effect on the stimulating effect of scopolamine (class F derivatives); type: in vivo; details: scopolamine 1 mg/kg; for oral dose countering the stimulating effect of scopolamine: oral administration
Protocol: At the dose of 1 mg/kg the scopolamine produce a clear stimulating effect (100 % of motor activity increase). This is countered by the oral administration of 2.5 mg of the three products MGR001, MGR002 and MGR003.

[4] = Pharmacokinetics after oral and intramuscular administration (class F derivatives); type: in vivo; details: rats; for maximum peak / time of the maximum peak after the oral administration: oral administration 7 mg/kg
Protocol: The kinetics of MGR001, MGR002, and MGR003 is determined in rats after oral administration and intramuscular of respectively 7 and 3.5 mg/kg. The maximum peak of 30 µg/ml is found 1 hour after the oral administration.

mouse [5] = experiment: Spontaneous motility, Dews method modified according to Carminati (class A derivatives); type: in vivo; details: mouse (Swiss), oral, starting from minimum doses of 4-6 mg/kg
From the text: (§1) The Dews method was used, modified according to Carminati (Arch. int. Pharmacodyn. et Thér 181, 68,1969).

[6] = test system: acetylcholinesterase (AchE); type: in vivo, Wistar male rats; details: rat; for inhibitory cerebral and serumal acetylcholinesterase activity (in words): oral, 1.5 to 4.5 mg/kg
mice (Swiss strain) [7] = experiment: Acute toxicity, LD50 by oral route in mice (class A derivatives); type: in vivo; details: mouse, suspension in 2 % carboxymethylcellulose, observation 7 days
From the text: The letal doses 50 (LD50) by oral route (suspension in 2 % carboxymethylcellulose) are reported herinbelow: TABLE 1

rabbit [8] = experiment: Effect on the duration of the curarization by succinylcholine (class A derivatives); type: in vivo; details: anesthetized rabbit, 0.8 mg/kg intravenous
From the text: . […] By using the same method (male rabbits of the tawny strain of Bourgogne; […]

SWISS male mice [9] = experiment: Electroencephalographic activity (class A derivatives); type: in vivo; details: 6 mg/kg/os, in the course of the successive 30 minutes
[10] = Pharmacokinetics, plasma level by HPLC (MGS101); type: in vivo, Wistar male rats; details: rat, 6 mg/kg/os
Protocol: (§2) The presence of said substance in plasma was detected by HPLC.
(§3) With the optimized method the detection limit was of 0.15 µg per ml of plasma.

SWISS male mice [11] = experiment: Electroencephalographic activity (class D derivatives); type: in vivo; details: 3mg/kg/os, in the course of the successive 30 minutes
rabbit [12] = experiment: Effect on the duration of the curarization by succinylcholine (class D derivatives); type: in vivo; details: anesthetized rabbit, 0.5 mg intravenous
[13] = test system: acetylcholinesterase (AchE); type: in vivo, Wistar male rats; details: rat; for inhibitory acetylcholinesterase activity (in words): oral, 1-2 mg/kg
mice (Swiss strain) [14] = experiment: Acute toxicity, LD50 by oral route in mice (class D derivatives); type: in vivo; details: mouse, suspension in 2 % carboxymethylcellulose, observation 7 days
From the text: The letal doses 50 (LD50) by oral route (suspension in 2 % carboxymethylcellulose) are reported hereinbelow: TABLE 6

[15] = Pharmacokinetics, plasma level by HPLC (MGF001); type: in vivo, Wistar male rats; details: rat, 2mg/kg/os
Protocol: as §2, §3

mouse [16] = experiment: Spontaneous motility, Dews method modified according to Carminati (class D derivatives); type: in vivo; details: mouse (Swiss)
From the text: as §1

motor activity [17] = experiment: Antagonistic effect on the stimulating effect of scopolamine (class B derivatives); type: in vivo; details: scopolamine 1 mg/kg
Protocol: At the dose of 1 mg/kg, scopolamine produces an evident stimulating effect (100% increase in motor activity).
This effect is countered by the oral administration of 2.5 mg of the above mentioned compounds.

motor activity [18] = experiment: Antagonist effect on the stimulating effect of scopolamine (class C derivatives); type: in vivo; details: scopolamine 1 mg/kg
Protocol: This is countered by the oral administration of 2.5 mg of ES001, ES002, ES003.

[19] = acetylcholinesterase inhibition 20 minutes after oral administration, limits in brackets

CN1CC[C@@]2(C)c3cc(OC(=O)NCCOP(=O)(O)OCC(O)CO)ccc3N(C)[C@@H]12 (stereo partly drawn) [MGR002, (3aS-cis) 1,2,3,3a,8,8a-hexahydro-1,3a,8 trimethyl-pyrrol-[2,3-b]-indol-5-ol-glycerylphosphoryl-ethyl carbamate ester]
LD50 [1]: 485 mg/kg
inhibition of AChE (acetylcholinesterase) on the mouse brain (in words) [2]: dose-dependence and reversible inhibition
oral dose countering the stimulating effect of scopolamine (motor activity [3]): 2.5 mg
liver kinetics / excretion [4]: pass through into the urine unchanged
maximum peak [4]: 30 µg/mL
time of the maximum peak after the oral administration [4]: 1 h

CC(=O)OCC(COP(=O)(O)OCCNC(=O)Oc1ccc2c(c1)[C@]1(C)CCN(C)[C@@H]1N2C)OC(C)=O (stereo partly drawn) [MGR001, (3aS-cis) 1,2,3,3a,8,8a-hexahydro-1,3a,8 trimethyl-pyrrol-[2,3-b]-indol-5-ol-diacetylglycerylphosphoryl-ethyl carbamate ester]
LD50 [1]: 500 mg/kg
inhibition of AChE (acetylcholinesterase) on the mouse brain (in words) [2]: dose-dependence and reversible inhibition
oral dose countering the stimulating effect of scopolamine (motor activity [3]): 2.5 mg
liver kinetics / excretion [4]: pass through into the urine unchanged
maximum peak [4]: 30 µg/mL
time of the maximum peak after the oral administration [4]: 1 h

CCCCCCCOC(=O)[C@@H](NC(=O)Oc1ccc2c(c1)[C@]1(C)CCN(C)[C@@H]1N2C)[C@@H](C)CC [MGS102, (3aS-cis) 1,2,3,3a,8,8a hexahydro-1,3a, 8-trimethyl-pyrrol (2,3-b) indol-5-ol-L-(3-methyl-2 carboxy-n-heptyl)-butyl-carbamate]
decrease of the spontaneous motility (on average) (mouse [5]): ~-30%
inhibitory cerebral and serumal acetylcholinesterase activity (in words) [6]: clear inhibitory dose-dependent and reversible
LD50 per os (mice (Swiss strain) [7]): 358.3 ± 18.83 mg/kg
effect on the curarization by succinylcholine compared with physostigmine (rabbit [8]): induced the same anticholinesterase effect of physostigmine

CC[C@H](C)[C@H](NC(=O)Oc1ccc2c(c1)[C@]1(C)CCN(C)[C@@H]1N2C)C(=O)O [MGS101]
decrease of the spontaneous motility (on average) (mouse [5]): ~-30%
INHIBITION % OF ACETYLCHOLINESTERASE (AchE) after 60 minutes brain ([6]; 3.5 mg/kg/OS): 38.71 ± 6.12%
INHIBITION % OF ACETYLCHOLINESTERASE (AchE) after 60 minutes serum ([6]; 3.5 mg/kg/OS): 31.6 ± 4.25%
INHIBITION % OF ACETYLCHOLINESTERASE (AchE) after 120 minutes serum ([6]; 3.5 mg/kg/OS): 20.12 ± 2.40%
ED50 (mg/kg/os) brain [6, 19]: 2.89 (1.83 - 4.59) mg/kg/os
ED50 (mg/kg/os) serum [6, 19]: 2.89 (1.82 - 4.49) mg/kg/os
inhibitory cerebral and serumal acetylcholinesterase activity (in words) [6]: clear inhibitory dose-dependent and reversible
modifications of the electroencephalogram (SWISS male mice [9]): increase of the amplitude and a decrease of the frequency of the electroencephalogram
LD50 per os (mice (Swiss strain) [7]): 332.8 ± 6.20 mg/kg
effect on the curarization by succinylcholine compared with physostigmine (rabbit [8]): induced the same anticholinesterase effect of physostigmine
concentration in plasma after 20 minutes [10]: 15910 ± 4210 ng/mL
concentration in plasma after 24 hours [10]: 4310 ± 1980 ng/mL
concentration in plasma at the twelfth hour [10]: 14220 ± 3120 ng/mL
maximum peak in plasma [10]: 33.81 ± 6.15 µg/mL
time of the maximum peak in plasma [10]: 90 '

CNCCCCCCCNC(=O)Oc1ccc2c(c1)[C@]1(C)CCN(C)[C@@H]1N2C [MGF001, (3a S-cis) - 1,2,3,3a,8,8a hexahydro - 1,3a,8 - trimethyl pyrrol [2,3-b]-indol-5-ol-N-methyl-aminoheptyl carbamate ester]
modifications of the electroencephalogram (SWISS male mice [11]): increase of the amplitude and a decrease of the frequency of the electroencephalogram
curare effect of succinylcholine compared with physostigmine (rabbit [12]): prolonged in the same way as physostigmine the curare effect of succinylcholine
INHIBITION % OF ACETYLCHOLINESTERASE (AchE) after 60 minutes brain ([13]; 2 mg/kg/OS): 46.38 ± 4.12%
INHIBITION % OF ACETYLCHOLINESTERASE (AchE) after 60 minutes serum ([13]; 2 mg/kg/OS): 42.6 ± 5.28%
INHIBITION % OF ACETYLCHOLINESTERASE (AchE) after 120 minutes brain ([13]; 2 mg/kg/OS): 25.45 ± 2.18%
INHIBITION % OF ACETYLCHOLINESTERASE (AchE) after 120 minutes serum ([13]; 2 mg/kg/OS): 19.83 ± 4.27%
ED50 (mg/kg/os) brain [13, 19]: 1.83 (1.14 - 2.94) mg/kg/os
ED50 (mg/kg/os) serum [13, 19]: 1.90 (1.13 - 3.20) mg/kg/os
inhibitory acetylcholinesterase activity (in words) [13]: clear inhibitory dose-dependent and reversible
LD50 per os (mice (Swiss strain) [14]): 461.44 ± 51.33 mg/kg
concentration in plasma after 20 minutes [15]: 11480 ± 2230 ng/mL
concentration in plasma after 120 minutes [15]: 28410 ± 8400 ng/mL
concentration in plasma after 12 hours [15]: 10640 ± 5460 ng/mL
maximum peak in plasma [15]: 47.60 ± 9.12 µg/mL
time of the maximum peak in plasma [15]: 90 '
oral dose causing a significant decrease of the spontaneous motility (mouse [16]): 2.5 to 5 mg/kg

CN1[C@@H]2C[C@@H](OC(=O)[C@H](CO)c3ccccc3)C[C@H]1[C@@H]1O[C@@H]12 [scopolamine, reference compound]
increase in motor activity (motor activity [17]): 100%
increase in motor activity (motor activity [18]): 100%
motor activity increase (motor activity [3]): 100%

CC(=O)OCC(COP(=O)(O)OC[C@H](NC(=O)Oc1ccc2c(c1)[C@]1(C)CCN(C)[C@@H]1N2C)C(=O)O)OC(C)=O (stereo partly drawn) [MGR003, (3aS-cis) 1,2,3,3a,8,8a-hexahydro - 1,3a,8 trimethyl-pyrrol-[2,3-b]-indol-5-ol-diacetyl-glycerylphosphoryl-2L -carboxylethyl carbamate ester]
LD50 [1]: 350 mg/kg
inhibition of AChE (acetylcholinesterase) on the mouse brain (in words) [2]: dose-dependence and reversible inhibition
oral dose countering the stimulating effect of scopolamine (motor activity [3]): 2.5 mg
maximum peak [4]: 30 µg/mL
time of the maximum peak after the oral administration [4]: 1 h

CN1CC[C@@]2(C)c3cc(OC(=O)NCCCCCCCN)ccc3N(C)[C@@H]12 [MGF005, (3a S-cis) - 1,2,3,3a,8,8a hexahydro - 1,3a,8 - trimethyl pyrrol [2,3,b]-indol-5-ol-amino heptyl carbamate ester]
inhibitory acetylcholinesterase activity (in words) [13]: clear inhibitory dose-dependent and reversible
LD50 per os (mice (Swiss strain) [14]): 428.42 ± 56.21 mg/kg
oral dose causing a significant decrease of the spontaneous motility (mouse [16]): 2.5 to 5 mg/kg

CNCCCCCNC(=O)Oc1ccc2c(c1)[C@]1(C)CCN(C)[C@@H]1N2C [MGF002, (3a S-cis) - 1,2,3,3a,8,8a hexahydro - 1,3a,8 - trimethyl pyrrol [2,3,b]-indol-5-ol-N-methyl-aminopentyl carbamate ester]
curare effect of succinylcholine compared with physostigmine (rabbit [12]): prolonged in the same way as physostigmine the curare effect of succinylcholine
inhibitory acetylcholinesterase activity (in words) [13]: clear inhibitory dose-dependent and reversible
LD50 per os (mice (Swiss strain) [14]): 436.72 ± 23.45 mg/kg
oral dose causing a significant decrease of the spontaneous motility (mouse [16]): 2.5 to 5 mg/kg
